Experimental findings from patent US10695434B2, “Preventing central nervous system induced nausea through use of vitamin B12 conjugation” (Syracuse University, priority 2018, dated 2020) are described below.

Broadly, the Kd is the constant that tells how readily two partners part at equilibrium.

A short description of data set [1]: Conditioned taste avoidance (CTA), two-bottle test (nausea/malaise). Format: in vivo, Sprague Dawley rats. The settings on record: rats, IP, B12-Ex4 5 μg/kg, LiCl 0.15M. The method, then: Rats (n=8-10 per drug) were evaluated for expression of a CTA to a flavor paired with B12-Ex4 (5 μg/kg, IP). […] See Supplemental Methods for more details.
For data set [2], the target named is T1, Human recombinant TCII (Homo sapiens, UniProt P20062).
T1 sequence (P20062 19-427): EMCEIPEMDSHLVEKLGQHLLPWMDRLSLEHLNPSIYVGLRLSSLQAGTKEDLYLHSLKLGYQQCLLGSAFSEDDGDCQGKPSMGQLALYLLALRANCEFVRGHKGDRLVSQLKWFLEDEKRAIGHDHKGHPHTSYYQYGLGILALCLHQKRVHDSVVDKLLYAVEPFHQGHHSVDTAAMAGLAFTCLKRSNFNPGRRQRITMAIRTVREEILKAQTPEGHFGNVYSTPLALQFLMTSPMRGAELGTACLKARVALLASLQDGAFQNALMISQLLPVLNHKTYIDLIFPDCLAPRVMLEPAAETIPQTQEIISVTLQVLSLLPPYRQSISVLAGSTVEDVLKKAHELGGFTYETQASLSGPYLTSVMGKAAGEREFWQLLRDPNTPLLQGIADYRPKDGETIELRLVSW
Put plainly: TCII binding, radio chase assay using 57Co-labelled B12. The text has this:
FIG. 1 is a series of graphs of (A) Synthetic scheme for Cy5-B12, Cy5 alkyne was “clicked” onto a B12-azide conjugate. (B) RP-HPLC of Cy5-B12 showing purity ≥98% and LC-MS showing 1031[M+2H]^+2, 1042[M+Na+2H]^+2, and 1050 [M+K+2H]^+2, consistent with the conjugate. (C) Excitation and emission spectra of Cy5-B12 at 645 and 682 nm, respectively. […] Note that B12-Ex4 agonism at the GLP-1 receptor was previously reported (68 pM).
One addition to the characterization was the measure of TCII binding of B12-Ex4 (FIG. 1D), which was conducted at the Department of Clinical Medicine-Clinical Biochemistry, University of Aarhus, Denmark as described. […] Injections were separated by at least 48 h. For most in vivo experiments, injections were administered using a within-subjects, Latin square design. The exception was the conditioned taste avoidance (CTA) study, which used a between-subjects design.
In addition, the food intake- and body weight-suppressive effects of GLP-1R agonists have highlighted the utility of these pharmacotherapies for the treatment of obesity.

The nature of data set [3]: Energy balance: chow intake and body weight after SC injection. Format: in vivo, Sprague Dawley rats. Particulars: rats. How it is done:
Shortly before the onset of the dark phase, rats (n=12) were given subcutaneous (SC) injection of B12-Ex4 (1, 5, or 20 μg/kg) or vehicle (1 ml/kg sterile saline). Chow intake was measured at 1, 3, 6, and 24 h post-injection. Food spillage was accounted for in all intake measurements. Body weight was also measured at 0 and 24 h.
(§1) Pre-weighed food was returned to the rats after the OGTT, and chow intake was measured for ˜21.5 h (e.g., until 24 h after the SC injections). Spillage was accounted for in food intake measurements. Body weight was recorded at 0 and 24 h. For the OGTT, n=10 rats were tested; food and body weight data were collected from n=9 due to a technical error in food intake measurement.

Data set [4] in a line: Oral glucose tolerance test (OGTT). Particulars: rats. Format: in vivo, Sprague Dawley rats. The method, then:
Rats (n=12) were deprived of food overnight before testing. On the morning of testing, just after the onset of the […], water was also removed from the cage. A small drop of blood was collected from the tail tip and analyzed for blood glucose (BG) level using a standard glucometer (AccuCheck). Immediately after this baseline BG reading (t=−30 min), each rat received SC injection of B12-Ex4 (5 or 20 μg/kg) or vehicle (1 ml/kg sterile saline); doses of drug were selected based on the results of the feeding study. Thirty minutes later (t=0 min), BG was measured and each rat received an oral gavage of glucose (2 g/kg). Subsequent BG readings were taken at 20, 40, 60, and 120 min after glucose gavage. After the final BG reading, food and water were returned.
as §1

A short description of data set [5]: Intraperitoneal glucose tolerance test (IPGTT). Format: in vivo, C57BL/6J mice. Particulars: mice. The method, then: The experimental procedure for IPGTT in mice was similar to that used for OGTT in rats. Briefly, mice (n=13; 8 females, 5 males) were food and water deprived for 4 h before and during the IPGTT. Testing was completed mid-light phase. Blood was collected from the tail tip and analyzed for BG. […] Thirty minutes later (t=0 min), BG was measured and each mouse received an IP injection of glucose (2 g/kg). Subsequent BG readings were taken at 20, 40, 60, and 120 min after glucose injection. After the final BG reading, food and water were returned. Area under the curve (AUC) was calculated from 0-120 min (e.g., beginning at the time of glucose administration) using the trapezoidal method.

A short description of data set [6]: Oral glucose tolerance test, food intake and nausea (kaolin consumption) in diabetic lean rats. Format: in vivo. The settings on record: Goto-Kakazaki rats; Ex-4 20 ug/Kg, B12-Ex4 equimolar, liraglutide 100 ug/Kg, 60 min pre-glucose. The method, then:
FIG. 8 is a series of graphs showing a standard oral glucose tolerance test performed in Goto-Kakazaki rats, a form of naturally diabetic lean rat, along with food intake and nausea measurements.
Referring to FIG. 8, Testing of Ex-4 at 20 ug/Kg, B12-Ex4 at equimolar to Ex-4, and liraglutide at 100 ug/Kg were screened for glucoregulation, food intake reduction and nausea (kaolin consumption). All drugs were administered at 60 minutes pre-glucose bolus, food intake and nausea were tracked over 6 hours.

In the case of `[Cl-].[Li+]` [LiCl, lithium chloride], in data set [1], the “acceptance of the drug-paired flavor (CTA)” value is given as “produce avoidance of the drug-paired flavor”.
Turning to Cyanocobalamin [cyano-B12], in data set [2], the dissociation constant Kd worked out at 0.98 nM.
Turning to exendin-4 [Ex4], the “food intake in the 21.5 h after OGTT” value in data set [3] (SC 5 or 20 μg/kg, vs vehicle) was “ate significantly less”. For the same compound, in data set [3] (SC, vehicle versus 20 μg/kg p<0.05), the “body weight gain, 24 h” value is given as “gained less body weight”. Besides, the “blood glucose by drug on its own (t=0, before glucose)” value in data set [4] (SC 5 or 20 μg/kg, 30 min after injection) was “increased BG on its own”. In data set [4] (SC 5 or 20 μg/kg, oral glucose 2 g/kg), the “blood glucose levels in the OGTT (overall)” value is “pronounced hyperglycemic response”. Moreover, the “BG late after glucose gavage” value in data set [4] (B12-Ex4: both doses at 60 min, higher dose at 120 min, Ex4: 40, 60, 120 min) was “remained significantly elevated”. Also, the “BG prior to IP glucose injection (t=0)” value in data set [5] (30 min after IP drug) was “reduced BG levels”. For the same compound, the “blood glucose levels in the IPGTT” value in data set [5] (IP Ex4 5 μg/kg or equimolar B12-Ex4, IP glucose 2 g/kg) is “strongly attenuated the increase in blood glucose levels”. Besides, the “BG at 20 min, Ex4 compared to B12-Ex4” value in data set [5] (p<0.05) is recorded as “more potent effect”. In addition, the “blood glucose area under the curve 0-120 min” value in data set [5] (post-glucose load, vs saline) is “hypoglycemic effects”. The “hyperglycemia in OGTT” value in data set [6] was “does do”.
